Results on four substances are retold here after patent publication US9469682B2, “Methods of treatment using natriuretic polypeptides” (Mayo Foundation for Medical Education and Research, priority 2006, dated 2016).

Experiment [1] deals with human cardiac fibroblasts. The experiment can be described thus: cGMP generation in cardiac fibroblast cells (competitive RIA). In kind it is cell-based. The following applies: 10^−11 M, 10^−8 M, or 10^−6 M for 10 minutes, FIGS. 9-11. The procedure: The biological effects of ABC-NP, ABC-NP1, or BC-NP2 on cardiac fibroblast cells were tested in vitro. Briefly, 80-90% confluent cardiac fibroblast cells were incubated in Hank's balanced salt solution (InVitrogen) containing 20 mmol/L N-[2-hydroxyethyl]piperazine-N′[2-ethanesulfonic acid], 0.1% bovine serum albumin, and 0.5 mmol/L 3-isobutyl-1-methylzanthine (Sigma). Treated cells received ANP (10^−6M), BNP (10^−6M), CNP (10^−6M), ABC-NP (10^−11M, 10^−8M, or 10^−6M), ABC-NP1 (10^−11 M, 10^−8 M, or 10^−6 M), or BC-NP2 (10^−11M, 10^−8 M, or 10^−6 M) for 10 minutes. Cells were lysed in 6% TCA and sonicated for 10 minutes. The samples were ether extracted four times in four volumes of ether, dried, and reconstituted in 300 μL cGMP assay buffer. The samples were assayed using a competitive RIA cGMP kit (Perkin-Elmer, Boston, Mass.). Briefly, samples and standards were incubated with 100 μL anti-human cGMP polyclonal antibody and I^125-antigen for 18 hours. cGMP assay buffer was added to the samples, and they were centrifuged for 20 minutes at 2500 rpm. The free fraction was aspirated off; the bound fraction was counted; and concentrations determined Samples were corrected for dilution factors, and values were expressed as pmoles/mL. There is no cross-reactivity with ANP, BNP, or CNP, and there is <0.001% reactivity with cAMP, GMP, GDP, ATP, and GTP.

Another experiment relates to normal dogs. The experiment can be described thus: Intravenous bolus of polypeptide in normal dogs (renal, haemodynamic and hormonal effects). In kind it is in vivo, dog. The following applies: 25 μg per kg IV bolus; for mean arterial blood pressure: FIG. 6; for plasma vasopressin levels: FIG. 7; for renal blood flow: FIG. 8; for vasodilatory effects: concluded from mean arterial blood pressure and renal blood flow. The method, then:
Polypeptides with the sequences set forth in FIGS. 1-3 were designed and synthesized. The polypeptide set forth in FIG. 1 is referred to as an ABC-NP polypeptide; the polypeptide set forth in FIG. 2 is referred to as an ABC-NP1 polypeptide; and the polypeptide set forth in FIG. 3 is referred to as a BC-NP2 polypeptide. The biological effects of intravenous ABC-NP, ABC-NP1, or BC-NP2 infusion were tested in normal dogs. Briefly, five normal dogs were infused with 25 μg of ABC-NP, ABC-NP1, or BC-NP2 per kg administered as an IV bolus. Urinary sodium excretion, urine flow, mean arterial blood pressure, plasma vasopressin levels, and renal blood flow were measured as described elsewhere (Chen et al., Am. J. Physiol. Regul. Integr. Comp. Physiol., 288: R1093-R1097 (2005) and Haber et al., J. Clin. Endocrinol. Metab., 29:1349-1355 ([…])). The results were compared to results obtained from dogs treated with 25 μg of BNP per kg administered as an IV bolus.

On to “ABC-NP1: 33-residue polypeptide: human mature ANP residues 11-15, human mature CNP residues 1-22, human mature BNP residues 27-32 (RMDRIGLSKGCFGLKLDRIGSMSGLGCKVLRRH; combination of SEQ ID NOs1, 7, and 3)”, for which the cGMP activation result in experiment [1] is “activated cGMP”. In the experiment on normal dogs, the “mean arterial blood pressure” value is reported as “reduction”, the plasma vasopressin levels entry was “strong trend for increasing” and the renal blood flow entry is listed as “increase”. In addition, in the experiment on normal dogs (FIGS. 4 and 5), the “prolonged aquaretic and diuretic renal actions” value was “no prolonged aquaretic and diuretic renal actions observed”.

As to “ABC-NP: 33-residue polypeptide: human ANP residues 11-15, human CNP 1-22 with positions 15-17 changed to Arg-Glu-Ala, human BNP residues 27-32 (RMDRIGLSKGCFGLKLDRIREASGLGCKVLRRH; combination of SEQ ID NOs1, 2, and 3)”, in experiment [1], the cGMP activation result is “did not”. Also, in the experiment on normal dogs, the “mean arterial blood pressure” value was “no effect”, the plasma vasopressin levels entry is listed as “did not increase” and the vasodilatory effects entry is recorded as “does not have vasodilatory effects”. In the experiment with normal dogs (FIGS. 4 and 5), the “aquaretic and natriuretic effects (urinary sodium excretion, urine flow)” value was “resulted in aquaretic and natriuretic effects”.

As to “BC-NP2: 28-residue polypeptide: human CNP 1-22 with positions 15-17 changed to arginine, glutamic acid, alanine, then human BNP residues 27-32 (GLSKGCFGLKLDRIREASGLGCKVLRRH; combination of SEQ ID NOs2 and 3)”, the cGMP activation result in experiment [1] is reported as “did not”. Also, in the experiment with normal dogs, the “mean arterial blood pressure” value is given as “did not result in a decrease”, the renal blood flow entry is “did not result in a decrease in mean arterial blood pressure or an increase in renal blood flow” and the vasodilatory effects entry is “does not have vasodilatory effects”. Further, the “renal effects as compared to ABC-NP” value in the experiment with normal dogs (FIGS. 4 and 5) is “about 50%”.

With “BNP: natriuretic peptide of myocardial cell origin; main form a 32 amino acid polypeptide with a ring structure; comparator [reference compound]”, in the experiment on normal dogs, the plasma vasopressin levels result was “increased”.
